According to patent US20240270720A1, “INDAZOLE YL BENZIMIDAZOLE DERIVATIVE OR PHARMACEUTICALLY ACCEPTABLE SALT THEREOF, AND USE THEREOF” (INDUSTRY-UNIVERSITY COOPERATION FOUNDATION HANYANG …, priority 2021, published 2024):
Positions count from the first letter of the chain named. Like-named read-outs stand apart in the source and are kept apart here.

Tests used:
FLT3 (D835Y) = target: T1, FLT3 (D835Y) (Homo sapiens, UniProt P36888, D835Y); assay: Kinase HotSpot radiometric kinase assay (Reaction Biology)
T1 sequence (P36888 27-993 D835Y): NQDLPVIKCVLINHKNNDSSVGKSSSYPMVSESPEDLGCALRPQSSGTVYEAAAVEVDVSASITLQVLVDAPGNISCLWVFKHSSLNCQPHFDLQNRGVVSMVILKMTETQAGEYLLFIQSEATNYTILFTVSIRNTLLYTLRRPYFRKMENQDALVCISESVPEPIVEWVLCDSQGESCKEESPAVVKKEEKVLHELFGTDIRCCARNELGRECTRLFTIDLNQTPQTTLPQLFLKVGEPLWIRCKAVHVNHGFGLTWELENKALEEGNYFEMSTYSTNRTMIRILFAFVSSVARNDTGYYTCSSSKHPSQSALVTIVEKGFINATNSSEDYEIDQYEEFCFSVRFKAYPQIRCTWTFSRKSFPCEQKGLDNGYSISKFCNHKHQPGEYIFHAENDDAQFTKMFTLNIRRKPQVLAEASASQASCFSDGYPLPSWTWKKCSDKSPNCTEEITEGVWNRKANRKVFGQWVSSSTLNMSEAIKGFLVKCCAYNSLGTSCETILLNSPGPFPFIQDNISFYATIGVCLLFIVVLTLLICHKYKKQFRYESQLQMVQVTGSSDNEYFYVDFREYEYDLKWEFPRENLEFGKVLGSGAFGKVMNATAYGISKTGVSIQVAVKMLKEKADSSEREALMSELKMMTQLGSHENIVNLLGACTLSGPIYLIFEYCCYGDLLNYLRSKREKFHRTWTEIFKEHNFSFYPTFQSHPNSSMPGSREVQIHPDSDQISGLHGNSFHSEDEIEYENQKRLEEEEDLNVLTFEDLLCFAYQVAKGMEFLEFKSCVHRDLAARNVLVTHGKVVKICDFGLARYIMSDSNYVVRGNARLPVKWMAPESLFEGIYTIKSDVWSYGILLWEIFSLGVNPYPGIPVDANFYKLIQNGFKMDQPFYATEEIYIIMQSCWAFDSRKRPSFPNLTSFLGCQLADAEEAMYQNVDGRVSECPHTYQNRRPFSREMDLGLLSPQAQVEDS
Procedure: (§1) Reaction Biology Corp. Kinase HotSpot SM service (www.reactionbiology.com) was used to determine IC50 values for all compounds and kinase profiles. The analysis protocol was as follows: In a final reaction volume of 25 μL, a peptide substrate, [[sequence]], 5 μM, ATP 10 μM, and FLT3(h) (5 to 10 mU) were incubated with 25 mM Tris pH 7.5, 0.02 mM EGTA, 0.66 mg/mL myelin basic protein, 10 mM Mg acetate and [γ-33P-ATP] (a concentration of approximately 500 cpm/pmol was required for specific activity). The reaction was initiated by adding the Mg-ATP mixture. After incubation at room temperature for 40 minutes, the reaction was stopped by adding 5 μL of a 3% phosphoric acid solution. Thereafter, 10 μL of the reactant was spotted on a P30 filter mat and washed three times for 5 minutes in 75 mM phosphoric acid and once in methanol before drying and scintillation counting.

FLT3 wild type = target: T2, FLT3 wild type (Homo sapiens, UniProt P36888); assay: Kinase HotSpot radiometric kinase assay (Reaction Biology); type: biochemical
T2 construct: purchased Reaction Biology Corp. (Kinase HotSpot service)
T2 sequence (P36888 27-993): T1 sequence (P36888 27-993 D835Y) with Y809D
Procedure: as §1

[1] = read-out: FLT3 (D835Y) IC50, Table 1

SMILES | IC50 (FLT3 (D835Y)) [nM] | melting point [°C] | IC50 (FLT3 wild type; values given in nM, read-out: IC50 FLT3 wild type) [nM] | IC50 (FLT3 (D835Y); [1]) [nM] | IC50 (FLT3 wild type; Table 1, read-out: FLT3 IC50) [nM]
CCN1CCN(c2cc(C(=O)Nc3ccc4[nH]c(-c5ccc6cn[nH]c6c5)nc4c3)cc(C(F)(F)F)c2)CC1(C)C [Compound 8z, N-(2-(1H-indazol-6-yl)-1H-benzo[di]imidazol-5-yl)-3-(4-ethyl-3,3-dimethylpiperazine-1-yl)-5-(trifluoromethyl)benzamide] | ~10 | 153 to 154 | 65.9 |  | 
O=C(Nc1ccc2[nH]c(-c3ccc4cn[nH]c4c3)nc2c1)c1ccc(N2CCOCC2)c(C(F)(F)F)c1 [Compound 8f, N-(2-(1H-indazol-6-yl)-1H-benzo[di]imidazol-5-yl)-4-morpholino-3-(trifluoromethyl)benzamide] |  | 202 to 204 |  | 370 | 2510
O=C(Nc1ccc2[nH]c(-c3ccc4cn[nH]c4c3)nc2c1)c1cc(N2CCN(C3CC3)CC2)cc(C(F)(F)F)c1 [Compound 8p, N-(2-(1H-indazol-6-yl)-1H-benzo[di]imidazol-5-yl)-3-(4-cyclopropylpiperazin-1-yl)-5-(trifluoromethyl)benzamide] |  | 154 to 156 |  | 131 | 409
CCN(CC)C1CCN(c2cc(C(=O)Nc3ccc4[nH]c(-c5ccc6cn[nH]c6c5)nc4c3)cc(C(F)(F)F)c2)C1 (stereo not drawn) [Compound 8o, N-(2-(1H-indazol-6-yl)-1H-benzo[di]imidazol-5-yl)-3-(3-(diethylamino)pyrrolidin-1-yl)-5-(trifluoromethyl)benzamide] |  | 221 to 223 |  | 120 | 841
